Patent publication US10316017B2, “COT modulators and methods of use thereof” (Gilead Sciences, Inc., priority 2015, dated 2019)

How the values were obtained:
[1] = test system: TNFα production in LPS-stimulated human monocytes; test: Cot Monocyte TNFα Cell Based Assay; settings: Homo sapiens, Monocyte, LPS-stimulated human monocytes, TNFα TR-FRET; read-out: EC50 TNF
Procedure, shortened: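 5,000 cells/well; cmpd 1 h, 37 °C, 0.5% DMSO final; LPS 50 pg/ml, 4 h, 37 °C; media TNFα by HTRF sandwich (cryptate/XL665), RT overnight; % control vs unstimulated/stimulated wells.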

[2] = molecular target: T1, human Cot catalytic domain (30-397 amino acids) (Homo sapiens, UniProt P41279); test: High Throughput Cot Biochemical Assay (KinEASE TR-FRET); settings: Cot KinEASE TR-FRET, 400 μM ATP; read-out: IC50 HTRF
T1 construct: Purified recombinant human Cot catalytic domain (30-397 amino acids) was purchased from Cama Biosciences; purchased Cama Biosciences (so in the source)
T1 sequence (P41279 30-397): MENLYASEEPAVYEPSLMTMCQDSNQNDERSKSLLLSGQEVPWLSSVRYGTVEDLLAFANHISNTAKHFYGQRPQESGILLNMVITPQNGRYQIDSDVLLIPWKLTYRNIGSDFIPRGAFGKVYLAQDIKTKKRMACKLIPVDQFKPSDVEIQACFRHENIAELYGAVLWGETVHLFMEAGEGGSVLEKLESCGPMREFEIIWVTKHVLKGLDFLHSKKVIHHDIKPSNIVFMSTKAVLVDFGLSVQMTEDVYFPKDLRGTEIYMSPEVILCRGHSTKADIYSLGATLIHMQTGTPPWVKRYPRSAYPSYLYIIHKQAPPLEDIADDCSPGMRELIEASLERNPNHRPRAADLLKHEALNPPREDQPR
Procedure, shortened: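 First, purified human Cot (aa 30-397) at 5 nM phosphorylates an XL665-labeled STK3 peptide (1 μM) at 400 μM ATP, pH 7.0, 0.1% DMSO. Then a europium-conjugated phospho-specific antibody binds the product, giving the TR-FRET signal.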

EC50 [1] [nM] | IC50 [2] [nM] | SMILES
307 | 9 | CC(C)(C)CNc1c(C#N)cnc2c(C#N)cc(N[C@@H](c3cccc(C4(C#N)CC4)c3)c3cn(C4(C(F)(F)F)CC4)nn3)cc12 [Example 1128, (S)-6-(((3-(1-cyanocyclopropyl)phenyl)(1-(1-(trifluoromethyl)cyclopropyl)-1H-1,2,3-triazol-4-yl)methy;)amino)-4-(neopentylamino)quinoline-3,8-dicarbonitrile]
148 | 5 | CC(C)(C)CNc1c(C#N)cnc2c(C#N)cc(N[C@@H](c3cccc(C4(C#N)CC4)c3)c3cn(C45CC(C4)C5)nn3)cc12 [Example 1129, (S)-6-(((1-(bicyclo[1.1.1]pentan-1-yl)-1H-1,2,3-triazol-4-yl)(3-(1-cyanocyclopropyl)phenyl)methyl)amino)-4-(neopentylamino)quinoline-3,8-dicarbonitrile]
103 | 10 | CC(C)(C)CNc1c(C#N)cnc2c(C#N)cc(N[C@@H](c3ccc(F)cc3)c3cn(C45CC(C4)C5)nn3)cc12 [Example 1130, (S)-6-(((1-(bicyclo[1.1.1]pentan-1-yl)-1H-1,2,3-triazol-4-yl)(4-fluorophenyl)methyl)amino)-4-(neopentylamino)quinoline-3,8-dicarbonitrile]
38 | 3 | Cc1c(-c2cnco2)cccc1[C@H](Nc1cc(C#N)c2ncc(C#N)c(NCC(C)(C)C)c2c1)c1cn(C2(C(F)(F)F)CC2)nn1 [Example 1131, (S)-6-(((2-methyl-3-(oxazol-5-yl)phenyl)(1-(1-(trifluoromethyl)cyclopropyl)-1H-1,2,3-triazol-4-yl)methyl)amino)-4-(neopentylamino)quinoline-3,8-dicarbonitrile]
175 | 8 | Cc1c(-c2cc[nH]n2)cccc1[C@H](Nc1cc(C#N)c2ncc(C#N)c(NCC(C)(C)C)c2c1)c1cn(C2(C(F)(F)F)CC2)nn1 [Example 1132, (S)-6-(((2-methyl-3-(1H-pyrazol-3-yl)phenyl)(1-(1-(trifluoromethyl)cyclopropyl)-1H-1,2,3-triazol-4-yl)methyl)amino)-4-(neopentylamino)quinoline-3,8-dicarbonitrile]
27 | 4 | Cc1c(-c2cn[nH]c2)cccc1[C@H](Nc1cc(C#N)c2ncc(C#N)c(NCC(C)(C)C)c2c1)c1cn(C2(C(F)(F)F)CC2)nn1 [Example 1133, (S)-6-(((2-methyl-3-(1H-pyrazol-4-yl)phenyl)(1-(1-(trifluoromethyl)cyclopropyl)-1H-1,2,3-triazol-4-yl)methyl)amino)-4-(neopentylamino)quinoline-3,8-dicarbonitrile]
57 | 2 | Cc1c(-c2ccnnc2)cccc1[C@H](Nc1cc(C#N)c2ncc(C#N)c(NCC(C)(C)C)c2c1)c1cn(C2(C(F)(F)F)CC2)nn1 [Example 1134, (S)-6-(((2-methyl-3-(pyridazin-4-yl)phenyl)(1-(1-(trifluoromethyl)cyclopropyl)-1H-1,2,3-triazol-4-yl)methyl)amino)-4-(neopentylamino)quinoline-3,8-dicarbonitrile]
44 | 2 | Cc1c(-c2cncn2C)cccc1[C@H](Nc1cc(C#N)c2ncc(C#N)c(NCC(C)(C)C)c2c1)c1cn(C2(C(F)(F)F)CC2)nn1 [Example 1135, (S)-6-(((2-methyl-3-(1-methyl-1H-imidazol-5-yl)phenyl)(1-(1-(trifluoromethyl)cyclopropyl)-1H-1,2,3-triazol-4-yl)methyl)amino)-4-(neopentylamino)quinoline-3,8-dicarbonitrile]
128 | 4 | Cc1c(-c2cccnc2)cccc1[C@H](Nc1cc(C#N)c2ncc(C#N)c(NCC(C)(C)C)c2c1)c1cn(C2(C(F)(F)F)CC2)nn1 [Example 1136, (S)-6-(((2-methyl-3-(pyridin-3-yl)phenyl)(1-(1-(trifluoromethyl)cyclopropyl)-1H-1,2,3-triazol-4-yl)methyl)amino)-4-(neopentylamino)quinoline-3,8-dicarbonitrile]
70 | 5 | Cc1c(-c2ccncc2)cccc1[C@H](Nc1cc(C#N)c2ncc(C#N)c(NCC(C)(C)C)c2c1)c1cn(C2(C(F)(F)F)CC2)nn1 [Example 1137, (S)-6-(((2-methyl-3-(pyridin-4-yl)phenyl)(1-(1-(trifluoromethyl)cyclopropyl)-1H-1,2,3-triazol-4-yl)methyl)amino)-4-(neopentylamino)quinoline-3,8-dicarbonitrile]
61 | 4 | Cc1c(-c2cnn(C)c2)cccc1[C@H](Nc1cc(C#N)c2ncc(C#N)c(NCC(C)(C)C)c2c1)c1cn(C2(C(F)(F)F)CC2)nn1 [Example 1138, (S)-6-(((2-methyl-3-(1-methyl-1H-pyrazol-4-yl)phenyl)(1-(1-(trifluoromethyl)cyclopropyl)-1H-1,2,3-triazol-4-yl)methyl)amino)-4-(neopentylamino)quinoline-3,8-dicarbonitrile]
82 | 13 | Cc1cc(C#N)ccc1[C@H](Nc1cc(C#N)c2ncc(C#N)c(NCC(C)(C)C)c2c1)c1cn(C2(C(F)F)CC2)nn1 [Example 1139, (S)-6-(((4-cyano-2-methylphenyl)(1-(1-(difluoromethyl)cyclopropyl)-1H-1,2,3-triazol-4-yl)methyl)amino)-4-(neopentylamino)quinoline-3,8-dicarbonitrile]
119 | 22 | Cc1cc(C#N)ccc1[C@H](Nc1cc(C#N)c2ncc(C#N)c(NCC(C)(C)C)c2c1)c1cn(C2(C(F)(F)F)CC2)nn1 [Example 1140, (S)-6-(((4-cyano-2-methylphenyl)(1-(1-(trifluoromethyl)cyclopropyl)-1H-1,2,3-triazol-4-yl)methyl)amino)-4-(neopentylamino)quinoline-3,8-dicarbonitrile]
69 | 2 | Cc1c(-c2ccncc2)cccc1[C@H](Nc1cc(C#N)c2ncc(C#N)c(NCC(C)(C)C)c2c1)c1cn(C2(C(F)F)CC2)nn1 [Example 1141, (S)-6-(((1-(1-(difluoromethyl)cyclopropyl)-1H-1,2,3-triazol-4-yl)(2-methyl-3-(pyridin-4-yl)phenyl)methyl)amino)-4-(neopentylamino)quinoline-3,8-dicarbonitrile]
31 | 2 | Cc1c(-c2cnn(C)c2)cccc1[C@H](Nc1cc(C#N)c2ncc(C#N)c(NCC(C)(C)C)c2c1)c1cn(C2(C(F)F)CC2)nn1 [Example 1142, (S)-6-(((1-(1-(difluoromethyl)cyclopropyl)-1H-1,2,3-triazol-4-yl)(2-methyl-3-(1-methyl-1H-pyrazol-4-yl)phenyl)methyl)amino)-4-(neopentylamino)quinoline-3,8-dicarbonitrile]
239 | 7 | Cc1c(-c2ccn(C)n2)cccc1[C@H](Nc1cc(C#N)c2ncc(C#N)c(NCC(C)(C)C)c2c1)c1cn(C2(C(F)(F)F)CC2)nn1 [Example 1143, (S)-6-(((2-methyl-3-(1-methyl-1H-pyrazol-3-yl)phenyl)(1-(1-(trifluoromethyl)cyclopropyl)-1H-1,2,3-triazol-4-yl)methyl)amino)-4-(neopentylamino)quinoline-3,8-dicarbonitrile]
379 | 11 | Cc1c(-c2ccccn2)cccc1[C@H](Nc1cc(C#N)c2ncc(C#N)c(NCC(C)(C)C)c2c1)c1cn(C2(C(F)(F)F)CC2)nn1 [Example 1144, (S)-6-(((2-methyl-3-(pyridin-2-yl)phenyl)(1-(1-(trifluoromethyl)cyclopropyl)-1H-1,2,3-triazol-4-yl)methyl)amino)-4-(neopentylamino)quinoline-3,8-dicarbonitrile]
99 | 5 | Cc1c(-c2cn(C)cn2)cccc1[C@H](Nc1cc(C#N)c2ncc(C#N)c(NCC(C)(C)C)c2c1)c1cn(C2(C(F)(F)F)CC2)nn1 [Example 1145, (S)-6-(((2-methyl-3-(1-methyl-1H-imidazol-4-yl)phenyl)(1-(1-(trifluoromethyl)cyclopropyl)-1H-1,2,3-triazol-4-yl)methyl)amino)-4-(neopentylamino)quinoline-3,8-dicarbonitrile]
33 | 2 | Cc1c(C#N)cccc1[C@H](Nc1cc(C#N)c2ncc(C#N)c(NCC(C)(C)C(F)(F)F)c2c1)c1cn(C2(C)CC2)nn1 [Example 1146, (S)-6-(((3-cyano-2-methylphenyl)(1-(1-methylcyclopropyl)-1H-1,2,3-triazol-4-yl)methyl)amino)-4-((3,3,3-trifluoro-2,2-dimethylpropyl)amino)quinoline-3,8-dicarbonitrile]
15 | 2 | Cc1c(C#N)cccc1[C@H](Nc1cc(C#N)c2ncc(C#N)c(NCC(C)(C)C)c2c1)c1cn(C2(CF)CC2)nn1 [Example 1147, (S)-6-(((3-cyano-2-methylphenyl)(1-(1-(fluoromethyl)cyclopropyl)-1H-1,2,3-triazo1-4-yl)methyl)amino)-4-(neopentylamino)quinoline-3,8-dicarbonitrile]
20 | 2 | Cc1c(C#N)cccc1[C@H](Nc1cc(C#N)c2ncc(C#N)c(NCC(C)(C)C)c2c1)c1cn(C2(C)CC2)nn1 [Example 1148, (S)-6-(((3-cyano-2-methylphenyl)(1-(1-methylcyclopropyl)-1H-1,2,3-triazol-4-yl)methyl)amino)-4-(neopentylamino)quinoline-3,8-dicarbonitrile]
